Laboratory results as given in US10799496B2, “Naphthylenyl compounds for long-acting injectable compositions and related methods” (priority 2018, dated 2020).

Assay: Pharmacokinetic evaluation of the release of naltrexone from Compound 2 in rats following a single intramuscular injection
Format: in vivo, Sprague-Dawley rats
Settings: for Compound 2 conc.: rat plasma
Experimental: Five male Sprague-Dawley rats were allowed to acclimate to the test facility for at least 2 days prior to study start. For dose administration of Compound 2, the rats were lightly anesthetized with isofluorane, the hind leg shaved and dosed intramuscularly with the formulation using a 21G needle. […] Serial whole blood samples were collected via sublingual route (˜150 μL) at 1, 8, and 24 hours post dose, and at 2, 4, 7, 10, 14, 17, 21, 24, 28, 35, 42, 49, 56, 63, 71, 78, 85, and 91 days post dose.
Blood samples were placed into K2EDTA blood collection tubes. After collection, blood samples were maintained chilled (on wet ice) and centrifuged (11,500 rpm for 2 minutes at 5 degrees C.) within 30 minutes to obtain plasma. Plasma was transferred into a single vial, 1.5 mL screw cap micro-centrifuge tube with inserts and stored at −80 degrees C. until analysis.
The formulation dosed was a crystalline suspension of Compound 2 (46 milligrams of Compound 2 dosed per animal), wherein the crystalline test article was characterized with a particle size distribution of Dv10=12.9 μm, Dv50=31.5 μm, and Dv90=63.1 μm (as measured via laser diffraction). The formulation was prepared the day before dosing. Details of the formulation dosed are described in Table D below.
Results of the above intramuscular rat study of Compound 2 are shown in Tables E and F. In particular, Table E reports the average blood plasma levels of naltrexone in rat (n=5) over 91 days following intramuscular administration.

In the case of O=C(Cc1ccc2cc(CC(=O)Oc3ccc4c5c3O[C@H]3C(=O)CC[C@@]6(O)[C@@H](C4)N(CC4CC4)CC[C@]536)ccc2c1)Oc1ccc2c3c1O[C@H]1C(=O)CC[C@@]4(O)[C@@H](C2)N(CC2CC2)CC[C@]314 [Compound 2, bis((4R,4aS,7aR,12bS)-3-(cyclopropylmethyl)-4a-hydroxy-7-oxo-2,3,4,4a,5,6,7,7a-octahydro-1H-4,12-methanobenzofuro[3,2-e]isoquinolin-9-yl) 2,2′-(naphthalene-2,6-diyl)diacetate], the “Compound 2 conc.” value (single i.m. dose of Compound 2, day 28, Rat 1) is reported as 0.236 ng/mL, the “Compound 2 conc.” value (single i.m. dose of Compound 2, day 28, Rat 2) is reported as 0.193 ng/mL and the “Compound 2 conc.” value (single i.m. dose of Compound 2, day 28, Rat 3) is reported as 0.205 ng/mL. For the same compound, the “Compound 2 conc.” value (single i.m. dose of Compound 2, day 28, Rat 4) was 0.176 ng/mL, the “Compound 2 conc.” value (single i.m. dose of Compound 2, day 28, Rat 5) was 0.111 ng/mL and the “Compound 2 conc.” value (single i.m. dose of Compound 2, day 35, Rat 1) was 0.165 ng/mL. The “Compound 2 conc.” value (single i.m. dose of Compound 2, day 35, Rat 2) was 0.439 ng/mL, the “Compound 2 conc.” value (single i.m. dose of Compound 2, day 35, Rat 3) was 0.350 ng/mL and the “Compound 2 conc.” value (single i.m. dose of Compound 2, day 35, Rat 4) was 0.265 ng/mL. The “Compound 2 conc.” value (single i.m. dose of Compound 2, day 35, Rat 5) was 0.152 ng/mL, the “Compound 2 conc.” value (single i.m. dose of Compound 2, day 42, Rat 1) was 0.155 ng/mL and the “Compound 2 conc.” value (single i.m. dose of Compound 2, day 42, Rat 2) was 0.156 ng/mL. For the same compound, the “Compound 2 conc.” value (single i.m. dose of Compound 2, day 42, Rat 3) was 0.212 ng/mL, the “Compound 2 conc.” value (single i.m. dose of Compound 2, day 42, Rat 4) was 0.199 ng/mL and the “Compound 2 conc.” value (single i.m. dose of Compound 2, day 42, Rat 5) was 0.205 ng/mL. The “Compound 2 conc.” value (single i.m. dose of Compound 2, day 49, Rat 1) was <0.1 ng/mL, the “Compound 2 conc.” value (single i.m. dose of Compound 2, day 49, Rat 2) was <0.1 ng/mL and the “Compound 2 conc.” value (single i.m. dose of Compound 2, day 49, Rat 3) was <0.1 ng/mL. For the same compound, the “Compound 2 conc.” value (single i.m. dose of Compound 2, day 49, Rat 4) was <0.1 ng/mL, the “Compound 2 conc.” value (single i.m. dose of Compound 2, day 49, Rat 5) was <0.1 ng/mL and the “Compound 2 conc.” value (single i.m. dose of Compound 2, day 56, Rat 1) was 0.358 ng/mL. For the same compound, the “Compound 2 conc.” value (single i.m. dose of Compound 2, day 56, Rat 2) was 0.205 ng/mL, the “Compound 2 conc.” value (single i.m. dose of Compound 2, day 56, Rat 3) was 0.105 ng/mL and the “Compound 2 conc.” value (single i.m. dose of Compound 2, day 56, Rat 4) was 0.170 ng/mL. The “Compound 2 conc.” value (single i.m. dose of Compound 2, day 56, Rat 5) was 0.163 ng/mL, the “Compound 2 conc.” value (single i.m. dose of Compound 2, day 63, Rat 1) was <0.1 ng/mL and the “Compound 2 conc.” value (single i.m. dose of Compound 2, day 63, Rat 2) was <0.1 ng/mL. The “Compound 2 conc.” value (single i.m. dose of Compound 2, day 63, Rat 3) was <0.1 ng/mL, the “Compound 2 conc.” value (single i.m. dose of Compound 2, day 63, Rat 4) was 0.142 ng/mL and the “Compound 2 conc.” value (single i.m. dose of Compound 2, day 63, Rat 5) was <0.1 ng/mL. For the same compound, the “Compound 2 conc.” value (single i.m. dose of Compound 2, day 71, Rat 1) was <0.1 ng/mL, the “Compound 2 conc.” value (single i.m. dose of Compound 2, day 71, Rat 2) was <0.1 ng/mL and the “Compound 2 conc.” value (single i.m. dose of Compound 2, day 71, Rat 3) was <0.1 ng/mL. The “Compound 2 conc.” value (single i.m. dose of Compound 2, day 71, Rat 4) was <0.1 ng/mL, the “Compound 2 conc.” value (single i.m. dose of Compound 2, day 71, Rat 5) was <0.1 ng/mL and the “Compound 2 conc.” value (single i.m. dose of Compound 2, day 78, Rat 1) was <0.1 ng/mL. For the same compound, the “Compound 2 conc.” value (single i.m. dose of Compound 2, day 78, Rat 2) was <0.1 ng/mL, the “Compound 2 conc.” value (single i.m. dose of Compound 2, day 78, Rat 3) was <0.1 ng/mL and the “Compound 2 conc.” value (single i.m. dose of Compound 2, day 78, Rat 4) was <0.1 ng/mL. For the same compound, the “Compound 2 conc.” value (single i.m. dose of Compound 2, day 78, Rat 5) was <0.1 ng/mL, the “Compound 2 conc.” value (single i.m. dose of Compound 2, day 85, Rat 1) was <0.1 ng/mL and the “Compound 2 conc.” value (single i.m. dose of Compound 2, day 85, Rat 2) was <0.1 ng/mL. The “Compound 2 conc.” value (single i.m. dose of Compound 2, day 85, Rat 3) was <0.1 ng/mL, the “Compound 2 conc.” value (single i.m. dose of Compound 2, day 85, Rat 4) was <0.1 ng/mL and the “Compound 2 conc.” value (single i.m. dose of Compound 2, day 85, Rat 5) was <0.1 ng/mL. The “Compound 2 conc.” value (single i.m. dose of Compound 2, day 91, Rat 1) was <0.1 ng/mL, the “Compound 2 conc.” value (single i.m. dose of Compound 2, day 91, Rat 2) was <0.1 ng/mL and the “Compound 2 conc.” value (single i.m. dose of Compound 2, day 91, Rat 3) was <0.1 ng/mL. For the same compound, the “Compound 2 conc.” value (single i.m. dose of Compound 2, day 91, Rat 4) was <0.1 ng/mL, the “Compound 2 conc.” value (single i.m. dose of Compound 2, day 91, Rat 5) was <0.1 ng/mL and the “plasma concentrations of parent Compound 2 and the resultant intermediate” value (rat, single i.m. dose of Compound 2, over 91 days) was “generally low to not measurable”. For the same compound, the “conversion of Compound 2 in rats to naltrexone” value (rat, single i.m. dose, over 91 days) was “efficient conversion”.
